Data: US8796256B2 (Janssen Pharmaceutica NV, priority 2010, dated 2014)

biological target: T1, ERR1 (also known as ERR-α or ERR-1) (Homo sapiens, UniProt P11474); experiment: TR-FRET assay (disruption of co-activator peptide binding to ERR1 LBD); assay type: biochemical; conditions: 6 nM 6His-ERR1LBD, 6 nM GST-SRC-2 peptide; average of 3 independent experiments
T1 sequence (P11474 193-421 limits assumed): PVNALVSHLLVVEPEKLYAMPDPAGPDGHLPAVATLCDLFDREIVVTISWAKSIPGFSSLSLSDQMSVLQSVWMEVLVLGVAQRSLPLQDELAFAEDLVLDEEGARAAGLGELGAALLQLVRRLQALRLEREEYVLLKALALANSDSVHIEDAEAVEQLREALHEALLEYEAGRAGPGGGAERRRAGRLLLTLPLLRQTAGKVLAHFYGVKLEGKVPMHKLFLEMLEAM
Experimental: Time-Resolved Fluorescence Resonance Energy Transfer (TR-FRET) experiments were performed to examine the functional response of ERR1 (also known as ERR-α or ERR-1) ligands. The TR-FRET assay described herein relied on the conformation of ERR1 for binding to a co-activator peptide: when a test compound binds to ERR1 and alters its conformation, it can disrupt the binding of the co-activator peptide. The components of this homogeneous secondary assay included: the ^6His-tagged-ERR1LBD, a GST-labeled-hSRC2 co-activator polypeptide and a fluorescent donor/acceptor pair from CIS bio international htrf/bioassays (Bedford, Mass.) using both an α-GST Europium (Eu) Cryptate label and an α^6His-XL665 (allophycocyanin) fluorophore.
For TR-FRET measurements, the reaction was buffered in 25 mM Tris pH 8, 2.5 mM Hepes, 20 mM KCl, 1 mM DTT, and 0.05 mg/mL BSA (delipidated). The final concentrations of reagents were 6 nM of ERR1LBD, 6 nM GST-SRC-2 peptide, 30 nM Eu cryptate, and 7.5 nM a^6His-XL665. Reactions were allowed to reach equilibrium at 25° C. for 4-18 h before collecting data on the Analyst from LJL Biosystems (Molecular Devices Sunnyvale, Calif.). […] Dose response curves were fitted using a hyperbolic equation and the data reported is the average of 3 independent experiments.

Row | EC50 [nM] | Compound
1 | 26 | O=C1S/C(=C\c2ccc3c(cnn3Cc3ccc(Cl)cc3C(F)(F)F)c2)C(=O)N1N1CCOCC1 [Compound 359, (5Z)-5-({1-[4-Chloro-2-(trifluoromethyl)benzyl]-1H-indazol-5-yl}methylidene)-3-morpholin-4-yl-1,3-thiazolidine-2,4-dione]
2 | 34 | O=C1S/C(=C\c2ccc3c(cnn3Cc3ccc(Cl)cc3C(F)(F)F)c2)C(=O)N1[C@@H]1CCNC[C@H]1F (relative stereo) [Compound 273, (5Z)-5-({1-[4-Chloro-2-(trifluoromethyl)benzyl]-1H-indazol-5-yl}methylidene)-3-(trans-3-fluoropiperidin-4-yl)-1,3-thiazolidine-2,4-dione]
3 | 65 | NC1(CCN2C(=O)S/C(=C\c3ccc4c(cnn4Cc4ccc(Cl)cc4C(F)(F)F)c3)C2=O)CCOCC1 [Compound 312, (5Z)-3-[2-(4-Aminotetrahydro-2H-pyran-4-yl)ethyl]-5-({1-[4-chloro-2-(trifluoromethyl)benzyl]-1H-indazol-5-yl}methylidene)-1,3-thiazolidine-2,4-dione]
4 | 100 | COc1ccc(Cn2ncc3cc(/C=C4\SC(=O)N(CCN5CC[C@H](O)C5)C4=O)ccc32)c(C(F)(F)F)c1 [Compound 14, (5Z)-3-{2-[(3S)-3-Hydroxypyrrolidin-1-yl]ethyl}-5-({1-[4-methoxy-2-(trifluoromethyl)benzyl]-1H-indazol-5-yl}methylidene)-1,3-thiazolidine-2,4-dione]
5 | 36 | O=C1S/C(=C\c2ccc3c(cnn3Cc3ccc(Cl)cc3C(F)(F)F)c2)C(=O)N1Cc1ncon1 [Compound 401, (5Z)-5-({1-[4-Chloro-2-(trifluoromethyl)benzyl]-1H-indazol-5-yl}methylidene)-3-(1,2,4-oxadiazol-3-ylmethyl)-1,3-thiazolidine-2,4-dione]
6 | 32 | CC(C)[C@H](N)CN1C(=O)S/C(=C\c2ccc3c(cnn3Cc3ccc(Cl)cc3C(F)(F)F)c2)C1=O [Compound 162, (5Z)-3-[(2S)-2-Amino-3-methylbutyl]-5-({1-[4-chloro-2-(trifluoromethyl)benzyl]-1H-indazol-5-yl}methylidene)-1,3-thiazolidine-2,4-dione]
7 | 456 | O=C1S/C(=C\c2ccc3c(cnn3Cc3ccc(Cl)cc3C(F)(F)F)c2)C(=O)N1C[C@@H]1C[C@H](O)CN1 (stereo in doubt) [Compound 286, (5Z)-5-({1-[4-Chloro-2-(trifluoromethyl)benzyl]-1H-indazol-5-yl}methylidene)-3-{[(2S,4S)-4-hydroxypyrrolidin-2-yl]methyl}-1,3-thiazolidine-2,4-dione]
8 | 136 | O=C1S/C(=C\c2ccc3c(cnn3Cc3ccc(Cl)cc3C(F)(F)F)c2)C(=O)N1Cc1c[nH]nn1 [Compound 85, (5Z)-5-({1-[4-Chloro-2-(trifluoromethyl)benzyl]-1H-indazol-5-yl}methylidene)-3-(1H-1,2,3-triazol-4-ylmethyl)-1,3-thiazolidine-2,4-dione]
9 | 13 | O=C(O)CN1C(=O)S/C(=C\c2ccc3c(c2)c(F)nn3Cc2ccc(Cl)cc2C(F)(F)F)C1=O [Compound 406, [(5Z)-5-({1-[4-Chloro-2-(trifluoromethyl)benzyl]-3-fluoro-1H-indazol-5-yl}methylidene)-2,4-dioxo-1,3-thiazolidin-3-yl]acetic acid]
10 | 15 | CN1CCC[C@H]1CN1C(=O)S/C(=C\c2ccc3c(c2)c(Cl)nn3Cc2ccc(Cl)cc2C(F)(F)F)C1=O [Compound 301, (5Z)-5-({3-Chloro-1-[4-chloro-2-(trifluoromethyl)benzyl]-1H-indazol-5-yl}methylidene)-3-{[(2S)-1-methylpyrrolidin-2-yl]methyl}-1,3-thiazolidine-2,4-dione]
11 | 66 | O=C1S/C(=C\c2ccc3c(cnn3Cc3ccc(Cl)cc3C(F)(F)F)c2)C(=O)N1Cc1ccccn1 [Compound 137, (5Z)-5-({1-[4-Chloro-2-(trifluoromethyl)benzyl]-1H-indazol-5-yl}methylidene)-3-(pyridin-2-ylmethyl)-1,3-thiazolidine-2,4-dione]
12 | 45 | O=C1S/C(=C\c2ccc3c(cnn3Cc3ccc(Cl)cc3C(F)(F)F)c2)C(=O)N1C1(C(=O)O)CCC1 [Compound 235, 1-[(5Z)-5-({1-[4-Chloro-2-(trifluoromethyl)benzyl]-1H-indazol-5-yl}methylidene)-2,4-dioxo-1,3-thiazolidin-3-yl]cyclobutanecarboxylic acid]
13 | 8 | COc1ccc(Cn2ncc3cc(/C=C4\SC(=O)N(CCCN(C)C)C4=O)ccc32)c(C(F)(F)F)c1 [Compound 10, (5Z)-3-[3-(Dimethylamino)propyl]-5-[(1-{[4-(methyloxy)-2-(trifluoromethyl)phenyl]-methyl}-1H-indazol-5-yl)methylidene]-1,3-thiazolidine-2,4-dione]
14 | 17 | O=C1S/C(=C\c2ccc3c(cnn3Cc3ccc(Cl)cc3C(F)(F)F)c2)C(=O)N1C[C@@H]1CCCN1CCO [Compound 153, (5Z)-5-({1-[4-Chloro-2-(trifluoromethyl)benzyl]-1H-indazol-5-yl}methylidene)-3-{[(2S)-1-(2-hydroxyethyl)pyrrolidin-2-yl]methyl}-1,3-thiazolidine-2,4-dione]
15 | 71 | CCN1CCC(F)(CN2C(=O)S/C(=C\c3ccc4c(cnn4Cc4ccc(Cl)cc4C(F)(F)F)c3)C2=O)CC1 [Compound 306, (5Z)-5-({1-[4-Chloro-2-(trifluoromethyl)benzyl]-1H-indazol-5-yl}methylidene)-3-[(1-ethyl-4-fluoropiperidin-4-yl)methyl]-1,3-thiazolidine-2,4-dione]
16 | 46 | COc1ccc(Cn2ncc3cc(/C=C4\SC(=O)N(CCN5CCCC5)C4=O)ccc32)c(C(F)(F)F)c1 [Compound 17, (5Z)-5-({1-[4-Methoxy-2-(trifluoromethyl)benzyl]-1H-indazol-5-yl}methylidene)-3-(2-pyrrolidin-1-ylethyl)-1,3-thiazolidine-2,4-dione]
17 | 28 | CC(=O)Nc1nc(C)c(S(=O)(=O)NCCN2C(=O)S/C(=C\c3ccc4c(cnn4Cc4ccc(Cl)cc4C(F)(F)F)c3)C2=O)s1 [Compound 420, N-[5-({2-[(5Z)-5-({1-[4-Chloro-2-(trifluoromethyl)benzyl]-1H-indazol-5-yl}methylidene)-2,4-dioxo-1,3-thiazolidin-3-yl]ethyl}sulfamoyl)-4-methyl-1,3-thiazol-2-yl]acetamide]
18 | 72 | Cc1nn(Cc2ccc(Cl)cc2C(F)(F)F)c2ccc(/C=C3\SC(=O)N(CC(=O)NS(C)(=O)=O)C3=O)cc12 [Compound 44, 2-[(5Z)-5-({1-[4-Chloro-2-(trifluoromethyl)benzyl]-3-methyl-1H-indazol-5-yl}methylidene)-2,4-dioxo-1,3-thiazolidin-3-yl]-N-(methylsulfonyl)acetamide]
19 | 61 | O=C1S/C(=C\c2ccc3c(cnn3Cc3ccc(C(F)(F)F)cc3C(F)(F)F)c2)C(=O)N1C[C@@H]1CNCCO1 [Compound 195, (5Z)-5-({1-[2,4-Bis(trifluoromethyl)benzyl]-1H-indazol-5-yl}methylidene)-3-[(2S)-morpholin-2-ylmethyl]-1,3-thiazolidine-2,4-dione]
20 | 87 | COC(=O)C(C1CCOCC1)N1C(=O)S/C(=C\c2ccc3c(cnn3Cc3ccc(Cl)cc3C(F)(F)F)c2)C1=O (stereo not drawn) [Compound 209, Methyl [(5Z)-5-({1-[4-chloro-2-(trifluoromethyl)benzyl]-1H-indazol-5-yl}methylidene)-2,4-dioxo-1,3-thiazolidin-3-yl](tetrahydro-2H-pyran-4-yl)acetate]
21 | 74 | N=C(N)NOCCN1C(=O)S/C(=C\c2ccc3c(ccn3Cc3ccc(Cl)cc3C(F)(F)F)c2)C1=O [Compound 257, 1-{2-[(5Z)-5-({1-[4-Chloro-2-(trifluoromethyl)benzyl]-1H-indol-5-yl}methylidene)-2,4-dioxo-1,3-thiazolidin-3-yl]ethoxy}guanidine]
22 | 86 | NC1(CN2C(=O)S/C(=C\c3ccc4c(cnn4Cc4ccc(C(F)(F)F)cc4C(F)(F)F)c3)C2=O)CCOCC1 [Compound 310, (5Z)-3-[(4-Aminotetrahydro-2H-pyran-4-yl)methyl]-5-({1-[2,4-bis(trifluoromethyl)benzyl]-1H-indazol-5-yl}methylidene)-1,3-thiazolidine-2,4-dione]
23 | 91 | CCOC(=O)C(Cc1ccccn1)N1C(=O)S/C(=C\c2ccc3c(cnn3Cc3ccc(Cl)cc3C(F)(F)F)c2)C1=O (stereo not drawn) [Compound 211, Ethyl 2-[(5Z)-5-({1-[4-chloro-2-(trifluoromethyl)benzyl]-1H-indazol-5-yl}methylidene)-2,4-dioxo-1,3-thiazolidin-3-yl]-3-pyridin-2-ylpropanoate]

Row | Compound | EC50 [nM]
24 | COC(=O)[C@H](COC(C)(C)C)N1C(=O)S/C(=C\c2ccc3c(cnn3Cc3ccc(Cl)cc3C(F)(F)F)c2)C1=O [Compound 210, Methyl (2S)-3-tert-butoxy-2-[(5Z)-5-({1-[4-chloro-2-(trifluoromethyl)benzyl]-1H-indazol-5-yl}methylidene)-2,4-dioxo-1,3-thiazolidin-3-yl]propanoate] | 260
